Test results: US20050245455A1, “Gonadotropin releasing hormone antagonists in gel-forming concentrations” (priority 2001, published 2005)
Where a SMILES comes first, the peptide text is derived from it. [ ]: non-standard residue; d: D form. The star is where a group is joined. dPhe(4-NHCONH2) = NC(=O)Nc1ccc(C[C@@H](N)C(=O)O)cc1; Dihydroorotyl(S) = O=C1C[C@@H](C(=O)*)NC(=O)N1; dPhe(4-Cl) = N[C@H](Cc1ccc(Cl)cc1)C(=O)O; Phe(4-NH2) = Nc1ccc(C[C@H](N)C(=O)O)cc1; d2Nal = N[C@H](Cc1ccc2ccccc2c1)C(=O)O; Lys(iPr) = CC(C)NCCCC[C@H](N)C(=O)O; d3Pal = N[C@H](Cc1cccnc1)C(=O)O

Conditions: dog, in vivo, sc

- Fraction of the total dose absorbed, subcutaneous compared to intramuscular administration: almost twice as high
SMILES: CC(=O)N[C@H](Cc1ccc2ccccc2c1)C(=O)N[C@H](Cc1ccc(Cl)cc1)C(=O)N[C@H](Cc1cccnc1)C(=O)N[C@@H](CO)C(=O)N[C@@H](Cc1ccc(NC(=O)[C@@H]2CC(=O)NC(=O)N2)cc1)C(=O)N[C@H](Cc1ccc(NC(N)=O)cc1)C(=O)N[C@@H](CC(C)C)C(=O)N[C@@H](CCCCNC(C)C)C(=O)N1CCC[C@H]1C(=O)N[C@H](C)C(N)=O [Peptide 1, Ac-DNal-DCpa-DPal-Ser-Aph(L-Hor)-DAph(CONH2)-Leu-Lys(iPr)-Pro-DAla-NH2] (Ac-[d2Nal][dPhe(4-Cl)][d3Pal]S[Phe(4-NH2)](Dihydroorotyl(S))[dPhe(4-NHCONH2)]L[Lys(iPr)]P[dA]-NH2)
